# Data from patent US20240376432A1, “METHOD FOR PREPARING PLURIPOTENT STEM CELL-DERIVED HEMATOPOIETIC STEM CELL AND METHOD FOR CONSTRUCTING HUMANIZED MOUSE MODEL BY USING HEMATOPOIETIC STEM CELL THUS PREPARED” (SUNGKWANG MEDICAL FOUNDATION, priority 2021, published 2024).
# System: human pluripotent stem cells (hPSCs)
# Test: Differentiation of human pluripotent stem cells into hematopoietic stem cells, proportion of CD34+CD45+ cells by FACS
# Format: cell-based
# Method: Specific experiments on the method of preparing human hematopoietic stem cells were performed as follows. First, isolated human pluripotent stem cells (hPSCs) were maintained in stemMACS-IPS brew medium for 2 days. The differentiation base culture medium consisted of the following composition: Stempro 34-SFM (+stempro sup)+200 ug/ml of human Transferrin +2 mM of L-glutamine+0.5 mM of L-ascorbic acid+0.45 mM of MTG (1-thioglycerol) +1% of penicillin/streptomycin. To induce mesodermfrom the isolated hPSCs, treatment was performed with CHIR99021 (5 uM) alone, a representative example of a GSK inhibitor, for about 2 days. Next, treatment was performed with 50 ng/ml of BMP4, 50 ng/ml of VEGF, and 100 ng/ml of bFGF for 2 days to induce hemangioblasts. Next, 50 ng/ml of VEGF, 50 ng/ml of bFGF, and SB-431542 (10 μM) as representative examples of TGF-beta inhibitors and 1 μM of retinoic acid (RA) were added and cultured for about 1 day, and 0.1% (w/v) of PVA, 50 ng/ml of stem cell factor (SCF), and 10 ng/ml of bFGF were added and cultured for about 11 days (FIG. 2).
# Specifically, it is widely known that vascular endothelial growth factor (VEGF) may be used to induce mesoderm and induce and maintain hemangioblasts (precursors of HSCs), and has been mainly used during the period of inducing hematopoietic stem cells. Therefore, to determine what effect it will have on the final hematopoietic stem cell generation efficiency when VEGF is excluded from the induction of hematopoietic stem cells, the results of hematopoietic stem cell differentiation according to the presence or absence of VEGF (10 ng/ml) were confirmed under the same conditions (50 ng/ml of SCF, 10 ng/ml of bFGF, 20 ng/ml of IL-3 and 10 ng/ml of IL-6) (FIG. 3A).
# To confirm the differentiation results, Fluorescence Activated Cell Sorting (FACS) was performed to confirm the proportion of CD34^+CD45^+ cells. […] After washing away the remaining antibodies with staining buffer, 200 μl of staining buffer was added again and analyzed using a flow cytometer.
# Specifically, in the existing method, treatment was performed with bone morphogenetic protein 4 (BMP4), VEGF, and CHIR99021 to induce mesoderm. However, it was determined that the above conditions were not compatible with the sequence of the process for differentiating stem cells into hematopoietic stem cells. […]
# For this purpose, the efficiency of hematopoietic stem cell differentiation when treated with SB-431542 (SB4), a representative example of a TGF-beta inhibitor, in addition to VEGF and basic fibroblast growth factor (bFGF) for various periods of time, was determined (FIG. 5A). […]
compound,measurement,setting,value
VEGF,ratio of CD34+CD45+ cells,"VEGF (10 ng/ml) present or absent during hematopoietic stem cell induction, with 50 ng/ml SCF, 10 ng/ml bFGF, 20 ng/ml IL-3, 10 ng/ml IL-6, FIG. 3B",excluding VEGF from the induction of hematopoietic stem cells was significantly superior
"Cc1cnc(-c2cnc(NCCNc3ccc(C#N)cn3)nc2-c2ccc(Cl)cc2Cl)[nH]1 [CHIR99021, 6-[[2-[[4-(2,4-Dichlorophenyl)-5-(5-methyl-1H-imidazol-2-yl)-2-pyrimidinyl]amino]ethyl]amino]-3-pyridinecarbonitrile]",ratio of CD34+CD45+ cells,"CHIR99021 alone in mesoderm induction, compared with BMP4 (5 ng/ml), VEGF (50 ng/ml) and CHIR99021, FIG. 4B",significantly superior
NC(=O)c1ccc(-c2nc(-c3ccc4c(c3)OCO4)c(-c3ccccn3)[nH]2)cc1 [SB4],hematopoietic stem cell differentiation efficiency,"EHT induction, SB4 for a long period of time in addition to VEGF and bFGF, FIG. 5B",significantly reduced
same,proportion of CD34+CD45+ cells,"EHT induction, SB4 for less than 24 hours in addition to VEGF and bFGF, FIG. 5B",significantly superior
